Measured values as given in patent US8741889B2, “Method of treating non-small cell lung cancer and colon cancer with gamma-secretase inhibitor” (Hoffmann-La Roche Inc, priority 2008, dated 2014).

Key:
[1] = system: MiaPaca2 human pancreatic carcinoma xenografts; experiment: Antitumor efficacy in MiaPaca2 pancreatic xenografts in nude mice; type: in vivo; details: day 37
Protocol: Female (athymic nu/nu) nude mice were obtained from Charles River Laboratories (Wilmington, Mass.), while female SCID-beige mice were purchased from Taconic (Germantown, N.Y.). Mice were used when they were approximately 8-12 weeks old (nudes) or 8-10 weeks old (SCID-beige), and weighed approximately 23-25 grams. The health of all animals was determined daily by gross observation of experimental animals and by the analyses of blood samples of sentinel animals that were housed on the shared shelf racks. All animals were allowed to acclimate and recover from any shipping related stress for a minimum of 72 hours prior to experimental use. Autoclaved water and irradiated food [5058-ms Pico chow (mouse) Purina, Richmond, Ind.] were provided ad libitum, and the animals were maintained on a 12 hour light and dark cycle. Cages, bedding and water bottles were autoclaved before use and were changed weekly. MiaPaca2, AsPC1 and BxPC3 human pancreatic carcinoma cells were purchased from ATCC (Manassas, Va.). BxPC3 and AsPC1 cells were grown in RPMI medium and MiaPaca2 cells were grown in Dulbecco's Modified Essential Medium (DMEM). All culture media were supplemented with 10% (v/v) FBS and 1% (v/v) […]. […] SCID-biege mice were implanted se with 5×10^6 BxPC3 cells in a 1:1 mixture of matrigel:PBS in a volume of 0.2 ml per mouse in the right hind flank on May 22, 2007. […] Formulated compound and vehicle were stored at 4° C. and prepared weekly. The suspension was mixed vigorously prior to administration. Gemcitabine (Gemzar®, Eli Lilly and Company, Indianapolis, Ind., USA) was reconstituted with sterile saline to yield a stock solution of 38 mg/ml for the entire 3-4 week study. […] Nude mice implanted with MiaPaca2 or AsPC1 xenografts were randomized on day 17 and day 9 post cell implant, respectively. SCID-beige mice bearing BxPC3 xenografts were randomized 8 days post implant. […] Treatment for the MiaPaca2 study began on Feb. […] For the MiaPaca2 and AsPC1 studies, qd Compound (1) suspension or q3d gemcitabine treatment ended on day 37 post tumor cell implant, whereas for the BxPC3 study, qd Compound (1) suspension or q3d gemcitabine treatment ended on day 35 post tumor cell implant. For intermittent dosing of Compound (1) suspension in the MiaPaca2 study using the 7+/7−/7+ schedule, treatment ended on day 23, was reinitiated on day 31, and ended day 37. In the combination groups Compound (1) suspension was given sequentially with gemcitabine using the 7+/7−/7+ schedule so that Compound (1) was dosed daily only during the first and third weeks, whereas gemcitabine was dosed q3d during the second week only. Efficacy data was graphically represented as the mean tumor volume+standard error of the mean (SEM). Tumor volumes of treated groups were presented as percentages of tumor volumes of the control groups (% T/C), using the formula: 100×((T−T0)/(C−C0)), where T represented mean tumor volume of a treated group on a specific day during the experiment, T0 represented mean tumor volume of the same […] on the first day of treatment; C represented mean tumor volume of a control group on the specific day during the experiment, and C0 represented mean tumor volume of the same treated group on the first day of treatment. Tumor volume (in cubic millimeters) was calculated using the ellipsoid formula: (D×(d2))/2 where ‘D’ represents the large diameter of the tumor, and ‘d’ represents the small diameter. In some cases, tumor regression and/or percent change in tumor volume was calculated using the formula: ((T−T0)/T0)×100 where ‘T’ represents mean tumor volume of the treated group at a particular day, and ‘T0’ represents mean tumor volume of the same treated group at initiation of treatment. Statistical analysis was determined by the rank sum test and One Way Anova and a post-hoc Bonferroni t-test (SigmaStat, version 2.0, Jandel Scientific, San Francisco, Calif.). […]

[2] = system: truncated human Notch 1 processing; experiment: Cellular Notch luciferase reporter assay in HEK293 cells; type: cell-based
Protocol: Multiple in vitro assays were utilized to characterize the potency and selectivity of compound (1). The primary in vitro assay uses cell-free membrane preparations to provide the -secretase enzyme complex as an in vitro assay. […] The cellular processing of APP is measured using an ELISA-based readout. HEK293 cells have been engineered to over-express APP. Processing is measured by an ELISA-based quantitation of the A 1-40 secretase product. Cellular Notch inhibitory activity is measured using HEK293 cell line stably expressing a truncated human Notch 1 fused in its intracellular domain to a VP16/[…] transcriptional activator, which drives a firefly luciferase gene Inhibition of Notch processing produces a reduction in luciferase reporter activity as measured by its chemo luminescence.

in vivo = experiment: in vivo
Protocol: Treatment began on Sep. 12, 2006 (day 26 post tumor cell implant). Compound (1) and vehicle were dosed as a suspension using a sterile 1 cc syringe and 18-gauge gavage needle (0.2 ml/animal) once (qd) or twice per day (bid) 8 hours apart for either 7, 14 or 21 days out of a 21 day schedule. For animals dosed for 7 days (7+/14−), treatment ended on Sep. 19, 2006 (day 33 post tumor cell implant). These mice were re-treated on day 67 with the same dose of compound (1) for another 7 days until day 74. For animals dose for 14 days (14+/7−) treatment ended on Sep. 26, 2006 (day 40 post tumor cell implant), and for animals dosed for 21 days, treatment ended on Oct. 3, 2006 (day 47 post tumor cell implant).
Weight loss was graphically represented as percent change in mean group body weight, using the formula: ((W−W0)/W0)×100, where ‘W’ represents mean body weight of the treated group at a particular day, and ‘W0’ represents mean body weight of the same treated group at initiation of treatment.

[3] = nude, mouse, in vivo, maximum tolerated dose (MTD)

CC(C)(C(=O)NCC(F)(F)C(F)(F)F)C(=O)N[C@@H]1C(=O)Nc2ccccc2-c2ccccc21 [Compound (1), 2,2-Dimethyl-N—((S)-6-oxo-6,7-dihydro-5H-dibenzo[b,d]azepin-7-yl)-N′-(2,2,3,3,3-pentafluoro-propyl)-malonamide]
% TGI ([1]; 1 mg/kg po qd × 21 days): 39% | % TGI ([1]; 3 mg/kg po qd × 21 days): 42% | % TGI ([1]; 10 mg/kg po qd × 21 days): 53% | % TGI ([1]; 10 mg/kg po, 7+/7−/7+): 51% | % TGI ([1]; 30 mg/kg po, 7+/7−/7+): 58% | % TGI ([1]; 60 mg/kg po, 7+/7−/7+): 48% | IC50 [2]: 5 nM | animal deaths (in vivo; 30 mg/kg bid for 21 days, 10/group): two | mice died (in vivo; 60 mg/kg bid for 14 days, 10/group): four | mice died (in vivo; 60 mg/kg bid for 21 days, 10/group): seven | mice died (in vivo; 60 mg/kg qd for 21 days, 10/group): three | maximum tolerated dose (MTD) (in vivo; nude, mouse, in vivo, 21 days): 10 mg/kg | MTD at 7 days (in vivo; [3]): 60 mg/kg | MTD at 14 days (in vivo; [3]): 30 mg/kg
